Assay results as given in patent US20250333424A1, “ANTIVIRAL COMPOUNDS” (Gilead Sciences, Inc., priority 2024, published 2025).

Tested on: monocytic THP1 cells infected with HIV VSV-G pseudotyped GFP-NEF reporter virus
Assay: cells
Format: cell-based
Conditions: Human immunodeficiency virus 1, THP-1, 24 h

Structure (SMILES)	EC50
Cc1cc(/C=C/C#N)cc(C)c1Oc1nc(NC23CC(C#N)(C2)C3)nc2nc(-c3cnoc3)[nH]c12 [Compound 71, (E)-3-((6-(4-(2-cyanovinyl)-2,6-dimethylphenoxy)-8-(isoxazol-4-yl)-7H-purin-2-yl)amino)bicyclo[1.1.1]pentane-1-carbonitrile]	274 nM
Cc1cc(/C=C/C#N)cc(C)c1Oc1nc(NC23CC(C#N)(C2)C3)nc2nc(-c3cncnc3)[nH]c12 [Compound 72, (E)-3-((6-(4-(2-cyanovinyl)-2,6-dimethylphenoxy)-8-(pyrimidin-5-yl)-7H-purin-2-yl)amino)bicyclo[1.1.1]pentane-1-carbonitrile]	308 nM
Cc1cc(/C=C/C#N)cc(C)c1Oc1nc(NC23CC(C#N)(C2)C3)nc2nc(-c3ccno3)[nH]c12 [Compound 73, (E)-3-((6-(4-(2-cyanovinyl)-2,6-dimethylphenoxy)-8-(isoxazol-5-yl)-7H-purin-2-yl)amino)bicyclo[1.1.1]pentane-1-carbonitrile]	285 nM
Cc1cc(/C=C/C#N)cc(C)c1Oc1nc(NC23CC(C#N)(C2)C3)nc2nn(-c3ccccc3)cc12 [Compound 74, (E)-3-((4-(4-(2-cyanovinyl)-2,6-dimethylphenoxy)-2-phenyl-2H-pyrazolo[3,4-d]pyrimidin-6-yl)amino)bicyclo[1.1.1]pentane-1-carbonitrile]	162 nM
Cc1cc(/C=C/C#N)cc(C)c1Oc1nc(NC23CC(C#N)(C2)C3)nc2c1CCC2(F)F [Compound 79, (E)-3-((4-(4-(2-cyanovinyl)-2,6-dimethylphenoxy)-7,7-difluoro-6,7-dihydro-5H-cyclopenta[d]pyrimidin-2-yl)amino)bicyclo[1.1.1]pentane-1-carbonitrile]	33.2 nM
Cc1cc(/C=C/C#N)cc(C)c1Oc1nc(NC23CC(C#N)(C2)C3)nc2nnn(C)c12 [Compound 81, (E)-3-((7-(4-(2-cyanovinyl)-2,6-dimethylphenoxy)-1-methyl-11H-[1,2,3]triazolo[4,5-d]pyrimidin-5-yl)amino)bicyclo[1.1.1]pentane-1-carbonitrile]	35.6 nM
Cc1cc(/C=C/C#N)cc(C)c1Oc1nc(NC23CC(C#N)(C2)C3)nc2nn(C)nc12 [Compound 82, (E)-3-((7-(4-(2-cyanovinyl)-2,6-dimethylphenoxy)-2-methyl-2H-[1,2,3]triazolo[4,5-d]pyrimidin-5-yl)amino)bicyclo[1.1.1]pentane-1-carbonitrile]	79 nM
Cc1cc(/C=C/C#N)cc(C)c1Oc1nc(NC23CC(C#N)(C2)C3)nc2nn(CC(F)F)c(C)c12 [Compound 83, (E)-3-((4-(4-(2-cyanovinyl)-2,6-dimethylphenoxy)-2-(2,2-difluoroethyl)-3-methyl-2H-pyrazolo[3,4-d]pyrimidin-6-yl)amino)bicyclo[11.1.1]pentane-1-carbonitrile]	162 nM
Cc1cc(/C=C/C#N)cc(C)c1Oc1nc(NC23CC(C#N)(C2)C3)nc2nn(CC(F)(F)F)c(C)c12 [Compound 84, (E)-3-((4-(4-(2-cyanovinyl)-2,6-dimethylphenoxy)-3-methyl-2-(2,2,2-trifluoroethyl)-2H-pyrazolo[3,4-d]pyrimidin-6-yl)amino)bicyclo[1.1.1]pentane-1-carbonitrile]	370 nM
Cc1cc(/C=C/C#N)cc(C)c1Oc1nc(NC23CC(C#N)(C2)C3)nc2nn(C)c(C)c12 [Compound 86, (E)-3-((4-(4-(2-cyanovinyl)-2,6-dimethylphenoxy)-2,3-dimethyl-2H-pyrazolo[3,4-d]pyrimidin-6-yl)amino)bicyclo[1.1.1]pentane-1-carbonitrile]	18.3 nM
Cc1cc(/C=C/C#N)cc(C)c1Oc1nc(NC23CC(C#N)(C2)C3)nc2nn(C)c(I)c12 [Compound 87, (E)-3-((4-(4-(2-cyanovinyl)-2,6-dimethylphenoxy)-3-iodo-2-methyl-2H-pyrazolo[3,4-d]pyrimidin-6-yl)amino)bicyclo[1.1.1]pentane-1-carbonitrile]	25.1 nM
C=Cc1c2c(Oc3c(C)cc(/C=C/C#N)cc3C)nc(NC34CC(C#N)(C3)C4)nc2nn1C [Compound 88, (E)-3-((4-(4-(2-cyanovinyl)-2,6-dimethylphenoxy)-2-methyl-3-vinyl-2H-pyrazolo[3,4-d]pyrimidin-6-yl)amino)bicyclo[1.1.1]pentane-1-carbonitrile]	23.4 nM
Cc1cc(/C=C/C#N)cc(C)c1Oc1nc(NC23CC(C#N)(C2)C3)nc2[nH]nc(Br)c12 [Compound 90, (E)-3-((3-bromo-4-(4-(2-cyanovinyl)-2,6-dimethylphenoxy)-1H-pyrazolo[3,4-d]pyrimidin-6-yl)amino)bicyclo[1.1.1]pentane-1-carbonitrile]	25.4 nM
Cc1cc(/C=C/C#N)cc(C)c1Oc1nc(NC23CC(C#N)(C2)C3)nc2[nH]nc(C(F)F)c12 [Compound 91, (E)-3-((4-(4-(2-cyanovinyl)-2,6-dimethylphenoxy)-3-(difluoromethyl)-1H-pyrazolo[3,4-d]pyrimidin-6-yl)amino)bicyclo[1.1.1]pentane-1-carbonitrile]	42.3 nM
Cc1cc(/C=C/C#N)cc(C)c1Oc1nc(NC23CC(C#N)(C2)C3)nc2nn(C)c(C(F)F)c12 [Compound 92, (E)-3-((4-(4-(2-cyanovinyl)-2,6-dimethylphenoxy)-3-(difluoromethyl)-2-methyl-2H-pyrazolo[3,4-d]pyrimidin-6-yl)amino)bicyclo[1.1.1]pentane-1-carbonitrile]	26.3 nM
Cc1cc(/C=C/C#N)cc(C)c1Oc1nc(NC23CC(C#N)(C2)C3)nc2c1c(C(F)F)nn2C [Compound 93, (E)-3-((4-(4-(2-cyanovinyl)-2,6-dimethylphenoxy)-3-(difluoromethyl)-1-methyl-1H-pyrazolo[3,4-d]pyrimidin-6-yl)amino)bicyclo[1.1.1]pentane-1-carbonitrile]	37.7 nM
Cc1cc(/C=C/C#N)cc(C)c1Oc1nc(NC23CC(C#N)(C2)C3)nc2[nH]nc(Cl)c12 [Compound 94, (E)-3-((3-chloro-4-(4-(2-cyanovinyl)-2,6-dimethylphenoxy)-1H-pyrazolo[3,4-d]pyrimidin-6-yl)amino)bicyclo[1.1.1]pentane-1-carbonitrile]	72.5 nM
CNC(=O)Cn1nc2nc(NC34CC(C#N)(C3)C4)nc(Oc3c(C)cc(/C=C/C#N)cc3C)c2c1C [Compound 98, (E)-2-(6-((3-cyanobicyclo[1.1.1]pentan-1-yl)amino)-4-(4-(2-cyanovinyl)-2,6-dimethylphenoxy)-3-methyl-2H-214-pyrazolo[3,4-d]pyrimidin-2-yl)-N-methylacetamide]	94.3 nM
CNC(=O)Cn1nc(C)c2c(Oc3c(C)cc(/C=C/C#N)cc3C)nc(NC34CC(C#N)(C3)C4)nc21 [Compound 99, (E)-2-(6-((3-cyanobicyclo[1.1.1]pentan-1-yl)amino)-4-(4-(2-cyanovinyl)-2,6-dimethylphenoxy)-3-methyl-1H-pyrazolo[3,4-d]pyrimidin-1-yl)-N-methylacetamide]	37.1 nM
Cc1cc(/C=C/C#N)cc(C)c1Oc1nc(NC23CC(C#N)(C2)C3)nc2c1c(C)nn2CC#N [Compound 100, (E)-3-((1-(cyanomethyl)-4-(4-(2-cyanovinyl)-2,6-dimethylphenoxy)-3-methyl-11H-pyrazolo[3,4-d]pyrimidin-6-yl)amino)bicyclo[1.1.1]pentane-1-carbonitrile]	36.1 nM
CNC(=O)CCn1nc(C)c2c(Oc3c(C)cc(/C=C/C#N)cc3C)nc(NC34CC(C#N)(C3)C4)nc21 [Compound 101, (E)-3-(6-((3-cyanobicyclo[1.1.1]pentan-1-yl)amino)-4-(4-(2-cyanovinyl)-2,6-dimethylphenoxy)-3-methyl-1H-pyrazolo[3,4-d]pyrimidin-1-yl)-N-methylpropanamide]	59.6 nM
Cc1cc(/C=C/C#N)cc(C)c1Oc1nc(NC23CC(C#N)(C2)C3)nc2nn(CCC(F)F)c(C)c12 [Compound 102, (E)-3-((4-(4-(2-cyanovinyl)-2,6-dimethylphenoxy)-2-(3,3-difluoropropyl)-3-methyl-2H-pyrazolo[3,4-d]pyrimidin-6-yl)amino)bicyclo[1.1.1]pentane-1-carbonitrile]	22.4 nM
Cc1cc(/C=C/C#N)cc(C)c1Oc1nc(NC23CC(C#N)(C2)C3)nc2c1c(C)nn2CCC(F)F [Compound 103, (E)-3-((4-(4-(2-cyanovinyl)-2,6-dimethylphenoxy)-1-(3,3-difluoropropyl)-3-methyl-1H-pyrazolo[3,4-d]pyrimidin-6-yl)amino)bicyclo[1.1.1]pentane-1-carbonitrile]	221 nM
Cc1cc(/C=C/C#N)cc(C)c1Oc1nc(NC23CC(C#N)(C2)C3)nc2[nH]nc(C3CC3)c12 [Compound 104, (E)-3-((4-(4-(2-cyanovinyl)-2,6-dimethylphenoxy)-3-cyclopropyl-1H-pyrazolo[3,4-d]pyrimidin-6-yl)amino)bicyclo[1.1.1]pentane-1-carbonitrile]	141 nM
C=Cc1n[nH]c2nc(NC34CC(C#N)(C3)C4)nc(Oc3c(C)cc(/C=C/C#N)cc3C)c12 [Compound 105, (E)-3-((4-(4-(2-cyanovinyl)-2,6-dimethylphenoxy)-3-vinyl-1H-pyrazolo[3,4-d]pyrimidin-6-yl)amino)bicyclo[1.1.1]pentane-1-carbonitrile]	182 nM
Cc1cc(/C=C/C#N)cc(C)c1Oc1nc(NC23CC(C#N)(C2)C3)nc2[nH]nc(-c3ccn(C)n3)c12 [Compound 107, (E)-3-((4-(4-(2-cyanovinyl)-2,6-dimethylphenoxy)-3-(1-methyl-1H-pyrazol-3-yl)-1H-pyrazolo[3,4-d]pyrimidin-6-yl)amino)bicyclo[1.1.1]pentane-1-carbonitrile]	443 nM
Cc1cc(/C=C/C#N)cc(C)c1Oc1nc(NC23CC(C#N)(C2)C3)nc2cn(C(C)C)nc12 [Compound 108]	611 nM
COc1n[nH]c2nc(NC34CC(C#N)(C3)C4)nc(Oc3c(C)cc(/C=C/C#N)cc3C)c12 [Compound 109, (E)-3-((4-(4-(2-cyanovinyl)-2,6-dimethylphenoxy)-3-methoxy-1H-pyrazolo[3,4-d]pyrimidin-6-yl)amino)bicyclo[1.1.1]pentane-1-carbonitrile]	200 nM
Cc1cc(/C=C/C#N)cc(C)c1Oc1nc(NC23CC(C#N)(C2)C3)nc2[nH]nc(O)c12 [Compound 110, (E)-3-((4-(4-(2-cyanovinyl)-2,6-dimethylphenoxy)-3-hydroxy-1H-pyrazolo[3,4-d]pyrimidin-6-yl)amino)bicyclo[1.1.1]pentane-1-carbonitrile]	> 1000 nM
